{"source": "patent US20140228377A1", "about": "“METHYLPIPERIDINE DERIVATIVE” (TAISHO PHARMACEUTICAL CO., LTD., priority 2011, published 2014)", "key": {"[1]": {"target": "T1, human orexin-1 receptor (hOX1R) (Homo sapiens, UniProt O43613)", "T1 construct": "expressed in transfected cells; host or cells: Chinese hamster ovary (CHO) cells", "T1 sequence (O43613 1-425)": "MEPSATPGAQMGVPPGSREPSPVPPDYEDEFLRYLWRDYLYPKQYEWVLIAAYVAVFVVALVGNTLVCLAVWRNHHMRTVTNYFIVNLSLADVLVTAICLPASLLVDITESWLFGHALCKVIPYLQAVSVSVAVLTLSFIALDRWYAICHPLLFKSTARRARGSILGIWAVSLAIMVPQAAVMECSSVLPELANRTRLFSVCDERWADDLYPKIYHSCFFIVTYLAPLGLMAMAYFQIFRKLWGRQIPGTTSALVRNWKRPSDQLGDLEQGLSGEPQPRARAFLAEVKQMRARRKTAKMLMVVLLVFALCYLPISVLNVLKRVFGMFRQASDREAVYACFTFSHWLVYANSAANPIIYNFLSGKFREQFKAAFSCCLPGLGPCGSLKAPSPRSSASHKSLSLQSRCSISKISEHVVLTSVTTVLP", "test": "Orexin antagonistic activity assay (intracellular Ca2+, FDSS) in CHO cells expressing hOX1R", "assay_type": "cell-based", "details": "CHO cells expressing hOX1R; ligand peptide 300 pM; Fluo-3 maximum fluorescence intensity; read-out: IC50 value OX1", "procedure": "(§1) The antagonistic activity of each test compound against human orexin-1 receptor (hOX1R) and orexin-2 receptor (hOX2R) was assayed by a modification of a method described in the literature (Toshikatsu Okumura et al., Biochemical and Biophysical Research Communications 280, 976-981, 2001). Chinese hamster ovary (CHO) cells forced to express hOX1R or hOX2R were inoculated at a density of 20,000 cells/well to a 96-well Black clear bottom plate (Nunc) and cultured at 37° C. for 16 hours under 5% CO2 conditions in a Ham's F-12 medium containing 0.1 mM MEM nonessential amino acids, 0.5 mg/ml G418, and 10% fetal bovine serum (all from Invitrogen Corp.). After removal of the medium, 100 μL of a buffer solution for assay (25 mM HEPES (Dojindo Laboratories), Hanks' balanced salt solution (Invitrogen Corp.), 0.1% bovine serum albumin, 2.5 mM probenecid, and 200 μg/ml Amaranth (all from Sigma-Aldrich Corp.), pH 7.4) containing 0.5 μM Fluo-3 AM ester (Dojindo Laboratories) was added to the cells, which were then incubated at 37° C. for 60 minutes under 5% CO2 conditions. After removal of the buffer solution for assay containing Fluo-3 AM ester, each test compound was dissolved at a concentration of 10 mM in dimethyl sulfoxide and diluted with a buffer solution for assay. Then, 150 μL of the solution was added to the cells, which were then incubated for 30 minutes.\n(§2) A ligand peptide (Pyr-[…]NH2; Peptide Institute, Inc.) derived from human orexin-A by the substitution of two amino acids was diluted with a buffer solution for assay to final concentrations of 300 pM for hOX1R and 3 nM for hOX2R. Reaction was initiated by the addition of 50 μL of this ligand solution. The fluorescence intensity of the reaction was measured in each well every second for 3 minutes using Functional Drug Screening System (FDSS; manufactured by Hamamatsu Photonics K.K.), and the maximum fluorescence intensity was used as an index for intracellular Ca^2+ concentration to determine antagonistic activity. The antagonistic activity of the test compound was calculated with fluorescence intensity from a well supplemented with only a diluting buffer solution as 100% and fluorescence intensity from a well supplemented with a buffer solution free from the ligand and the compound as 0%. The 50% inhibitory concentration (IC50 value) was determined on the basis of fluorescence intensity derived from the test compound added at varying concentrations."}, "[2]": {"target": "T2, orexin-2 receptor (hOX2R) (Homo sapiens, UniProt O43614)", "T2 construct": "expressed in transfected cells; host or cells: Chinese hamster ovary (CHO) cells", "T2 sequence (O43614 1-444)": "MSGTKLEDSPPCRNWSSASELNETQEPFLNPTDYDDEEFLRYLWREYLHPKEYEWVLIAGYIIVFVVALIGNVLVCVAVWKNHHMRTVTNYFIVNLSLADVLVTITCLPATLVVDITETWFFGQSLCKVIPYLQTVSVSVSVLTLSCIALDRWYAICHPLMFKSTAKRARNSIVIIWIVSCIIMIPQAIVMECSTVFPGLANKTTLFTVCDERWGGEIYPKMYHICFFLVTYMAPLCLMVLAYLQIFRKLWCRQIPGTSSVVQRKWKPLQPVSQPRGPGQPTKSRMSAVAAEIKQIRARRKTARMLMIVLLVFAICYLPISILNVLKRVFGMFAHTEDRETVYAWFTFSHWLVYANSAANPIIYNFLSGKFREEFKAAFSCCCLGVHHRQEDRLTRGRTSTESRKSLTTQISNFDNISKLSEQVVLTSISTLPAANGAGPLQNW", "test": "Orexin antagonistic activity assay (intracellular Ca2+, FDSS) in CHO cells expressing hOX2R", "assay_type": "cell-based", "details": "CHO cells expressing hOX2R; ligand peptide 3 nM; Fluo-3 maximum fluorescence intensity; read-out: IC50 value OX2", "procedure": "as §1, §2"}}, "note": "pIC50: −log10 of the molar value."}
{"smiles": "Cc1ccc(-n2nccn2)c(C(=O)N2C[C@H](c3nc4cc(OC(F)(F)F)ccc4o3)CC[C@H]2C)n1", "note": "[Example 42, [6-Methyl-3-(2H-1,2,3-triazol-2-yl)pyridin-2-yl]{(2R,5R)-2-methyl-5-[5-(trifluoromethoxy)-1,3-benzoxazol-2-yl]piperidin-1-yl}methanone]", "values": [{"measurement": "pIC50", "setting": "[1]", "result": 5.98}, {"measurement": "pIC50", "setting": "[2]", "result": 6.04}]}
{"smiles": "Cc1ccc(-n2nccn2)c(C(=O)N2C[C@H](c3nc4ccc(Cl)cc4o3)CC[C@H]2C)c1", "note": "[Example 43, [(2R,5R)-5-(6-Chloro-1,3-benzoxazol-2-yl)-2-methylpiperidin-1-yl][5-methyl-2-(2H-1,2,3-triazol-2-yl)phenyl]methanone]", "values": [{"measurement": "pIC50", "setting": "[1]", "result": 8.39}, {"measurement": "pIC50", "setting": "[2]", "result": 8.01}]}
{"smiles": "Cc1ccc(-c2ncccn2)c(C(=O)N2C[C@H](c3nc4ccc(Cl)cc4o3)CC[C@H]2C)c1", "note": "[Example 44, [(2R,5R)-5-(6-Chloro-1,3-benzoxazol-2-yl)-2-methylpiperidin-1-yl][5-methyl-2-(pyrimidin-2-yl)phenyl]methanone]", "values": [{"measurement": "pIC50", "setting": "[1]", "result": 8.04}, {"measurement": "pIC50", "setting": "[2]", "result": 7.64}]}
{"smiles": "C[C@@H]1CC[C@@H](c2nc3ccc(Cl)cc3o2)CN1C(=O)c1cc(F)ccc1-c1ncccn1", "note": "[Example 45, [(2R,5R)-5-(6-Chloro-1,3-benzoxazol-2-yl)-2-methylpiperidin-1-yl][5-fluoro-2-(pyrimidin-2-yl)phenyl]methanone]", "values": [{"measurement": "pIC50", "setting": "[1]", "result": 7.11}, {"measurement": "pIC50", "setting": "[2]", "result": 7.91}]}
{"smiles": "Cc1ccc(-n2nccn2)c(C(=O)N2C[C@H](c3nc4ccc(Cl)cc4o3)CC[C@H]2C)n1", "note": "[Example 46, [(2R,5R)-5-(6-Chloro-1,3-benzoxazol-2-yl)-2-methylpiperidin-1-yl][6-methyl-3-(2H-1,2,3-triazol-2-yl)pyridin-2-yl]methanone]", "values": [{"measurement": "pIC50", "setting": "[1]", "result": 8.00}, {"measurement": "pIC50", "setting": "[2]", "result": 7.15}]}
{"smiles": "C[C@@H]1CC[C@@H](c2nc3ccc(Cl)cc3o2)CN1C(=O)c1ccc(F)cc1-n1nccn1", "note": "[Example 47, [(2R,5R)-5-(6-Chloro-1,3-benzoxazol-2-yl)-2-methylpiperidin-1-yl][4-fluoro-2-(2H-1,2,3-triazol-2-yl)phenyl]methanone]", "values": [{"measurement": "pIC50", "setting": "[1]", "result": 7.23}, {"measurement": "pIC50", "setting": "[2]", "result": 7.78}]}
{"smiles": "C[C@@H]1CC[C@@H](c2nc3ccc(Cl)cc3o2)CN1C(=O)c1c(F)cccc1-n1nccn1", "note": "[Example 48, [(2R,5R)-5-(6-Chloro-1,3-benzoxazol-2-yl)-2-methylpiperidin-1-yl][2-fluoro-6-(2H-1,2,3-triazol-2-yl)phenyl]methanone]", "values": [{"measurement": "pIC50", "setting": "[1]", "result": 7.23}, {"measurement": "pIC50", "setting": "[2]", "result": 7.91}]}
{"smiles": "C[C@@H]1CC[C@@H](c2nc3ccc(F)cc3o2)CN1C(=O)c1cc(Cl)ccc1-c1ncccn1", "note": "[Example 49, [5-Chloro-2-(pyrimidin-2-yl)phenyl][(2R,5R)-5-(6-fluoro-1,3-benzoxazol-2-yl)-2-methylpiperidin-1-yl]methanone]", "values": [{"measurement": "pIC50", "setting": "[1]", "result": 6.99}, {"measurement": "pIC50", "setting": "[2]", "result": 7.03}]}
{"smiles": "Cc1ccc(-n2nccn2)c(C(=O)N2C[C@H](c3nc4cc(F)c(F)cc4o3)CC[C@H]2C)c1", "note": "[Example 50, [(2R,5R)-5-(5,6-Difluoro-1,3-benzoxazol-2-yl)-2-methylpiperidin-1-yl][5-methyl-2-(2H-1,2,3-triazol-2-yl)phenyl]methanone]", "values": [{"measurement": "pIC50", "setting": "[1]", "result": 8.01}, {"measurement": "pIC50", "setting": "[2]", "result": 8.07}]}
{"smiles": "Cc1ccc(-c2ncccn2)c(C(=O)N2C[C@H](c3nc4cc(F)c(F)cc4o3)CC[C@H]2C)c1", "note": "[Example 51, [(2R,5R)-5-(5,6-Difluoro-1,3-benzoxazol-2-yl)-2-methylpiperidin-1-yl][5-methyl-2-(pyrimidin-2-yl)phenyl]methanone]", "values": [{"measurement": "pIC50", "setting": "[1]", "result": 7.87}, {"measurement": "pIC50", "setting": "[2]", "result": 8.14}]}
{"smiles": "C[C@@H]1CC[C@@H](c2nc3cc(F)c(F)cc3o2)CN1C(=O)c1cc(F)ccc1-c1ncccn1", "note": "[Example 52, [(2R,5R)-5-(5,6-Difluoro-1,3-benzoxazol-2-yl)-2-methylpiperidin-1-yl][5-fluoro-2-(pyrimidin-2-yl)phenyl]methanone]", "values": [{"measurement": "pIC50", "setting": "[1]", "result": 7.08}, {"measurement": "pIC50", "setting": "[2]", "result": 7.96}]}
{"smiles": "C[C@@H]1CC[C@@H](c2nc3cc(F)c(F)cc3o2)CN1C(=O)c1cc(Cl)ccc1-c1ncccn1", "note": "[Example 53, [5-Chloro-2-(pyrimidin-2-yl)phenyl][(2R,5R)-5-(5,6-difluoro-1,3-benzoxazol-2-yl)-2-methylpiperidin-1-yl]methanone]", "values": [{"measurement": "pIC50", "setting": "[1]", "result": 7.25}, {"measurement": "pIC50", "setting": "[2]", "result": 7.88}]}
{"smiles": "Cc1ccc(-n2nccn2)c(C(=O)N2C[C@H](c3nc4cc(F)c(F)cc4o3)CC[C@H]2C)n1", "note": "[Example 54, [(2R,5R)-5-(5,6-Difluoro-1,3-benzoxazol-2-yl)-2-methylpiperidin-1-yl][6-methyl-3-(2H-1,2,3-triazol-2-yl)pyridin-2-yl]methanone]", "values": [{"measurement": "pIC50", "setting": "[1]", "result": 7.01}, {"measurement": "pIC50", "setting": "[2]", "result": 7.28}]}
{"smiles": "C[C@@H]1CC[C@@H](c2nc3cc(F)c(F)cc3o2)CN1C(=O)c1ccc(F)cc1-n1nccn1", "note": "[Example 55, [(2R,5R)-5-(5,6-Difluoro-1,3-benzoxazol-2-yl)-2-methylpiperidin-1-yl][4-fluoro-2-(2H-1,2,3-triazol-2-yl)phenyl]methanone]", "values": [{"measurement": "pIC50", "setting": "[1]", "result": 6.68}, {"measurement": "pIC50", "setting": "[2]", "result": 8.03}]}
{"smiles": "Cc1ccc(-n2nccn2)c(C(=O)N2C[C@H](c3nc4cc(C#N)ccc4o3)CC[C@H]2C)c1", "note": "[Example 56, 2-[(3R,6R)-6-Methyl-1-[5-methyl-2-(2H-1,2,3-triazol-2-yl)benzoyl]piperidin-3-yl]-1,3-benzoxazole-5-carbonitrile]", "values": [{"measurement": "pIC50", "setting": "[1]", "result": 6.79}, {"measurement": "pIC50", "setting": "[2]", "result": 8.00}]}
{"smiles": "Cc1ccc(-c2ncccn2)c(C(=O)N2C[C@H](c3nc4cc(C#N)ccc4o3)CC[C@H]2C)c1", "note": "[Example 57, 2-{(3R,6R)-6-Methyl-1-[5-methyl-2-(pyrimidin-2-yl)benzoyl]piperidin-3-yl}-1,3-benzoxazole-5-carbonitrile]", "values": [{"measurement": "pIC50", "setting": "[1]", "result": 6.25}, {"measurement": "pIC50", "setting": "[2]", "result": 7.70}]}
{"smiles": "Cc1ccc(-n2nccn2)c(C(=O)N2C[C@H](c3nc4ccc(F)c(F)c4o3)CC[C@H]2C)c1", "note": "[Example 58, [(2R,5R)-5-(6,7-Difluoro-1,3-benzoxazol-2-yl)-2-methylpiperidin-1-yl][5-methyl-2-(2H-1,2,3-triazol-2-yl)phenyl]methanone]", "values": [{"measurement": "pIC50", "setting": "[1]", "result": 8.03}, {"measurement": "pIC50", "setting": "[2]", "result": 8.03}]}
{"smiles": "Cc1ccc(-c2ncccn2)c(C(=O)N2C[C@H](c3nc4ccc(F)c(F)c4o3)CC[C@H]2C)c1", "note": "[Example 59, [(2R,5R)-5-(6,7-Difluoro-1,3-benzoxazol-2-yl)-2-methylpiperidin-1-yl][5-methyl-2-(pyrimidin-2-yl)phenyl]methanone]", "values": [{"measurement": "pIC50", "setting": "[1]", "result": 8.36}, {"measurement": "pIC50", "setting": "[2]", "result": 8.04}]}
{"smiles": "Cc1ccc(-n2nccn2)c(C(=O)N2C[C@H](c3nc4c(F)cc(F)cc4o3)CC[C@H]2C)c1", "note": "[Example 60, [(2R,5R)-5-(4,6-Difluoro-1,3-benzoxazol-2-yl)-2-methylpiperidin-1-yl][5-methyl-2-(2H-1,2,3-triazol-2-yl)phenyl]methanone]", "values": [{"measurement": "pIC50", "setting": "[1]", "result": 7.03}, {"measurement": "pIC50", "setting": "[2]", "result": 7.34}]}
{"smiles": "Cc1ccc(-c2ncccn2)c(C(=O)N2C[C@H](c3nc4c(F)cc(F)cc4o3)CC[C@H]2C)c1", "note": "[Example 61, [(2R,5R)-5-(4,6-Difluoro-1,3-benzoxazol-2-yl)-2-methylpiperidin-1-yl][5-methyl-2-(pyrimidin-2-yl)phenyl]methanone]", "values": [{"measurement": "pIC50", "setting": "[1]", "result": 7.09}, {"measurement": "pIC50", "setting": "[2]", "result": 7.35}]}
